Experimental data: PMC11786100, “Chronic GIPR agonism results in pancreatic islet GIPR functional desensitisation” (Molecular Metabolism, 2025)

Tests used:
HFD-induced obese mice = assay: Chronic GIP108 administration to HFD-induced obese mice; format: in vivo, mouse; conditions: for body weight / food intake: n = 9–10/group
Protocol: In all in vivo studies, mice were randomised by body weight into groups. Mice received a 50 μL subcutaneous injection of saline (0.9% sodium chloride) or peptide at a specified dose, diluted in saline. Peptide dosing was in nmol per kg of total body weight. For the assessment of the chronic effects of GIP108, mice were injected daily for 15 days. Body composition was measured by EchoMRI on day −1 and day 15. An intraperitoneal glucose tolerance test (IPGTT) (2 g/kg) was conducted on day 14, following 6 h of fasting and 2 h after peptide injection. Non-fasting plasma leptin (ab199082, Abcam, UK), adiponectin (ab226900, Abcam, UK) and amino acids (ab65347, Abcam, UK) were measured on day 16. For the assessments of in vivo GIPR desensitisation, mice were injected at 17:00 with vehicle or GIP108 (30 nmol/kg) prior to an acute food intake study/IPGTT/insulin bleeds conducted the following day. Full details of the in vivo studies are provided in the supplementary methods.
HFD-induced obese mice (mean starting weight of 43.4 g) received daily injection of saline, GIP108 (30 nmol/kg) and GIP108 (100 nmol/kg) (n=9-10/group) for 15 days. Mice were injected between 16:00 and 17:00, before the beginning of the natural feeding period. Food intake and body weight were measured daily for the entirety of the study. Fat mass and lean mass were calculated on day -1 and day 15. An intraperitoneal glucose tolerance test (IPGTT) was conducted on day 14. On this day, mice received their daily injection of peptide at midday rather than between 16:00 and 17:00. The mice were culled on day 16 via decapitation to allow for collection of large volumes of blood for plasma analysis.
Mice were fasted at 08:00. For all studies, 20% glucose was administered at 14:00, with the injection volume adjusted to the body weight of the mouse such that each mouse received glucose at 2 g/kg. To assess effects of GIP108 on day 14 of the chronic study, mice were dosed with saline or GIP108 at a specified dose at 12:00. […] Blood glucose measurements were taken via tail vein venesection at baseline, t=15, t=30, t=60, t=90 and t=120 mins. Glucose AUC is calculated using y=0. Glucose readings were measured in mmol/L using the same GlucoRx glucometer.
Body composition was measured using an EchoMRI^TM machine. This allows for the measurement of lean mass, fat mass and water mass. The mass was recorded in grams. Mice were restrained in a red Perspex tube which was then inserted into the EchoMRI^TM machine. Each scan took 160 seconds. The tube was cleaned between animals to minimise stress.
Leptin, adiponectin and amino acids were quantified following chronic GIP108 administration. Plasma amino acids were measured using the Abcam L-amino acid assay kit (ab65347, Abcam, UK). Plasma adiponectin was measured using the Abcam mouse adiponectin ELISA kit (ab226900, Abcam, UK). Plasma leptin was measured using the Abcam mouse leptin ELISA kit (ab199082, Abcam, UK). All assays were performed according to the manufacturer’s protocol and were read using the SpectraMax i3x Microplate Reader (Molecular Devices, US).

mouse GIPR = assay: HTRF cAMP assay in transiently transfected AD-293 cells; format: cell-based; conditions: 30 min stimulation, n = 3–5
Protocol: (§1) AD-293 cells were transfected with desired plasmid DNA 24 h prior to cAMP quantification using the cAMP-Gs Dynamic 2 kit (Cisbio, France), as per manufacturer's protocol. Full details are provided in the supplementary methods.
(§2) AD-293 cells were added to a 12-well plate and maintained in 2 ml complete DMEM. 1 μg of specified plasmid DNA was added to each well alongside Lipofectamine 2000 (Thermo Fisher, UK). cAMP production was quantified 24 hours following transfection using homogenous time resolved fluorescence (HTRF), specifically the cAMP-Gs Dynamic 2 kit (Cisbio, France). Peptides and cells were diluted in DMEM + 1% P/S + 0.1% BSA. For peptide stability testing, cells, fresh peptide and peptide incubated with dispersed islet cells were diluted in RPMI-1640 (Thermo Fisher, UK) + 10% FBS + 1% P/S. 10 μl of peptide and 10 μl of cell suspension were added in duplicate to an opaque 96-well plate (Grenier Bio-One, Austria) and incubated at 37°C for 30 minutes. 10 μl of cAMP-d2 and anti-cAMP cryptate, both diluted in lysis buffer, were added in quick succession as per the manufacturer’s protocol. The plates were then incubated at room temperature for 45 minutes and read using the SpectraMax i3x (Molecular Devices, US).

human GCGR = molecular target: T1, human GCGR (Homo sapiens, UniProt P47871); assay: as above; format: cell-based; conditions: 30 min stimulation, n = 3–5
T1 construct: Plasmids encoding full length, wild-type human or mouse GLP-1R, GIPR or glucagon receptor (GCGR) in the pcDNA5/FRT vector; host or cells: AD-293
Protocol: as §1, §2

human GLP-1R = molecular target: T2, human GLP-1R (Homo sapiens, UniProt P43220); assay: as above; format: cell-based; conditions: 30 min stimulation, n = 3–5
T2 construct: Plasmids encoding full length, wild-type human or mouse GLP-1R, GIPR or glucagon receptor (GCGR) in the pcDNA5/FRT vector; host or cells: AD-293
Protocol: as §1, §2

mouse GLP-1R = molecular target: T3, mouse GLP-1R (Mus musculus, UniProt O35659); assay: as above; format: cell-based; conditions: 30 min stimulation, n = 3–5
T3 construct: Plasmids encoding full length, wild-type human or mouse GLP-1R, GIPR or glucagon receptor (GCGR) in the pcDNA5/FRT vector; host or cells: AD-293
T3 sequence (O35659 22-463): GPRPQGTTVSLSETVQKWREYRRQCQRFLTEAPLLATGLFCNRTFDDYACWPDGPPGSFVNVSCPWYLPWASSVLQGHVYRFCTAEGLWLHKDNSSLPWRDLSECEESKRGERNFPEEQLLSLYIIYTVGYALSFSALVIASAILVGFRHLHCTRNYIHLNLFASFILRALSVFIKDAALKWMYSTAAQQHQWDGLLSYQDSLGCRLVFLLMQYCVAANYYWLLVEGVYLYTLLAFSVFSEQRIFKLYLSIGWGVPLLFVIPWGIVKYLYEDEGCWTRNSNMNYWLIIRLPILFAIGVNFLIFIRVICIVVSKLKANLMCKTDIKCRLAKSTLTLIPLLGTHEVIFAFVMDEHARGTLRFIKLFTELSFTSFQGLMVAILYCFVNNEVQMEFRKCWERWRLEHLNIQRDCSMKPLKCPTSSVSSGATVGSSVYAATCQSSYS
Protocol: as §1, §2

[1] = 30 nmol/kg daily s.c. over two weeks
[2] = 100 nmol/kg daily s.c. over two weeks, EchoMRI
[3] = 100 nmol/kg daily s.c. over two weeks
[4] = 30 or 100 nmol/kg daily s.c., fed state 16 h after last injection

T1 sequence (P47871 26-477): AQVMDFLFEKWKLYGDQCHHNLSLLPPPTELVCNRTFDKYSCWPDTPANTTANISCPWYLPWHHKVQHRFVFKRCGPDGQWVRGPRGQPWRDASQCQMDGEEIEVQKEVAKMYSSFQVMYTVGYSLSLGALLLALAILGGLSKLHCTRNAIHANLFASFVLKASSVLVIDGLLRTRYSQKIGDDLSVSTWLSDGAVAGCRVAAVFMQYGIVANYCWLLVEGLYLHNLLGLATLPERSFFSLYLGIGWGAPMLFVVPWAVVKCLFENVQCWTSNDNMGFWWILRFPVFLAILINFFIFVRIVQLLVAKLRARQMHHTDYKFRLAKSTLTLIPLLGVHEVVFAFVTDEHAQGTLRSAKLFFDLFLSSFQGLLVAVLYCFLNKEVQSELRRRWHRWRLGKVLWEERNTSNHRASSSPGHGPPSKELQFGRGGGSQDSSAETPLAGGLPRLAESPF
T2 sequence (P43220 24-463): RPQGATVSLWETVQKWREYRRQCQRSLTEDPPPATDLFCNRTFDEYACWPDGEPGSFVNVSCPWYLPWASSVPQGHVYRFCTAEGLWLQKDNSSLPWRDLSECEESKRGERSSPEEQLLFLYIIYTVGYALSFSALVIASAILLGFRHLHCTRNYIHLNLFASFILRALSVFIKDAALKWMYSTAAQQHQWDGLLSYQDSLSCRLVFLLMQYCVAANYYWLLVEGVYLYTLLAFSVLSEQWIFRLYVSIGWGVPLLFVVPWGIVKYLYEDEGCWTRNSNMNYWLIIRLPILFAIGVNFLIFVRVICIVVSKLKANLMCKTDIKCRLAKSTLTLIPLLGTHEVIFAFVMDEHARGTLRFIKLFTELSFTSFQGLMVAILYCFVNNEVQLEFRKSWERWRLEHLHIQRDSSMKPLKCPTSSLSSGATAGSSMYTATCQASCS

## CC[C@H](C)[C@H](NC(=O)[C@H](CO)NC(=O)[C@H](Cc1ccc(O)cc1)NC(=O)[C@H](CC(=O)O)NC(=O)[C@H](CO)NC(=O)[C@@H](NC(=O)[C@H](Cc1ccccc1)NC(=O)[C@@H](NC(=O)CNC(=O)[C@H](CCC(=O)O)NC(=O)C(C)(C)NC(=O)[C@@H](N)Cc1ccc(O)cc1)[C@@H](C)O)[C@@H](C)CC)C(=O)N[C@@H](C)C(=O)N[C@@H](CC(C)C)C(=O)N[C@@H](CC(=O)O)C(=O)N[C@@H](CCCCN)C(=O)N[C@H](C(=O)N[C@@H](Cc1c[nH]cn1)C(=O)N[C@@H](CCC(N)=O)C(=O)N[C@@H](CCC(N)=O)C(=O)N[C@@H](CC(=O)O)C(=O)N[C@@H](Cc1ccccc1)C(=O)N[C@H](C(=O)N[C@@H](CC(N)=O)C(=O)N[C@@H](Cc1c[nH]c2ccccc12)C(=O)N[C@@H](CC(C)C)C(=O)N[C@@H](CC(C)C)C(=O)N[C@@H](C)C(=O)N[C@@H](CCC(N)=O)C(=O)N[C@@H](CCCCN)C(=O)NCC(=O)N[C@@H](CCCCNC(=O)CC[C@H](NC(=O)CCCCCCCCCCCCCCCCCCC(=O)O)C(=O)O)C(=O)N[C@@H](CCCCN)C(=O)N[C@@H](CC(N)=O)C(=O)N[C@@H](CC(=O)O)C(=O)N[C@@H](Cc1c[nH]c2ccccc12)C(=O)N[C@@H](CCCCN)C(=O)N[C@@H](Cc1c[nH]cn1)C(=O)N[C@@H](CC(N)=O)C(=O)N[C@H](C(=O)N[C@H](C(=O)N[C@@H](CCC(N)=O)C(=O)O)[C@@H](C)O)[C@@H](C)CC)C(C)C)[C@@H](C)CC [GIP108]
HFD-induced obese mice; 30 nmol/kg daily s.c. over two weeks, EchoMRI
  fat mass: not 30 nmol/kg
HFD-induced obese mice; [1]
  body weight: had no effect on body weight
  food intake: not 30 nmol/kg
HFD-induced obese mice; [2]
  fat mass: significantly lowered
  lean mass: without reductions in lean mass
HFD-induced obese mice; [3]
  body weight: significantly lowered
  food intake: significantly lowered
HFD-induced obese mice; 30 and 100 nmol/kg daily s.c., IPGTT 2 g/kg on day 14, 2 h after injection
  intraperitoneal glucose tolerance: dose-dependent improvement
HFD-induced obese mice; 30 and 100 nmol/kg daily s.c., day 14, 2 h after injection
  fasting glucose: dose-dependent improvement
HFD-induced obese mice; [4]
  plasma adiponectin: increased plasma adiponectin
  plasma amino acid levels: had no impact
  plasma leptin: reduced plasma leptin
Mouse GIPR
  fold lower cAMP potency than hGIP at mouse GIPR: 19.6 fold
Human GCGR
  cAMP activation of human GCGR: minimal activation
Human GLP-1R
  cAMP activation of human GLP-1R: minimal activation
Mouse GLP-1R
  cAMP activation of mouse GLP-1R: minimal activation
